Oligonucleotides are written 5' to 3', each unit as a sugar letter and its base; * is a phosphorothioate linkage, no mark a phosphodiester; rarer units and linkages stand in square brackets, end groups in braces. Plain capitals give the bases only. k = constrained ethyl (cEt); d = 2'-deoxy (DNA)
Columns and labels:
KLK2 mRNA = KLK2 mRNA (AR target gene) in C4-2B MR cells; type: cell-based, human
KLK3 mRNA = KLK3 mRNA (AR target gene) in C4-2B MR cells; type: cell-based, human

| Substance | Percent inhibition of KLK2 mRNA in C4-2B MR cells (KLK2 mRNA; 0.04 μM) | Percent inhibition of KLK2 mRNA in C4-2B MR cells (KLK2 mRNA; 0.20 μM) | Percent inhibition of KLK2 mRNA in C4-2B MR cells (KLK2 mRNA; 1.00 μM) | Percent inhibition of KLK2 mRNA in C4-2B MR cells (KLK2 mRNA; 5.00 μM) | Percent inhibition of KLK3 mRNA in C4-2B MR cells (KLK3 mRNA; 0.04 μM) | Percent inhibition of KLK3 mRNA in C4-2B MR cells (KLK3 mRNA; 0.20 μM) | Percent inhibition of KLK3 mRNA in C4-2B MR cells (KLK3 mRNA; 1.00 μM) | Percent inhibition of KLK3 mRNA in C4-2B MR cells (KLK3 mRNA; 5.00 μM) | AR target gene KLK2 mRNA levels (KLK2 mRNA; C4-2B MR cells, 0.04-5.00 μM) | AR target gene KLK3 mRNA levels (KLK3 mRNA; C4-2B MR cells, 0.04-5.00 μM) |
| --- | --- | --- | --- | --- | --- | --- | --- | --- | --- | --- |
| 549458 (kG*kT*kT*dG*dA*dT*dT*dT*dA*dA*dT*dG*dG*kT*kT*kG) [compound 549458] | 35% | 47% | 87% | 93% | 0% | 42% | 81% | 92% |  |  |
| GTTGATTTAATGGTTG (all phosphorothioate, sugars by position not given here; further chemistry not fully specified) [ISIS 549458] |  |  |  |  |  |  |  |  | reduced target gene levels in a dose dependent manner more extensively than treatment with ISIS 554221 | reduced target gene levels in a dose dependent manner more extensively than treatment with ISIS 554221 |

Reference: patent publication USRE48461E1, “Modulation of androgen receptor expression” (Ionis Pharmaceuticals, Inc., priority 2012, dated 2021)
